In US20090264648A1, “SYNTHESIS OF PYRAZOLES” (WYETH, priority 2008, published 2009):
“Also recorded” adds a separate entry of the source. Structures can show the parent of a compound that is named as a salt. Where two headings read alike, the source gives them in different places. Blank lines part the entries; values can stand above or below the molecule they belong to.

How the values were obtained:
[1] = Hygroscopicity noted on isolation of the hydrochloride salt; type: physicochemical; settings: salt precipitated from DCM with HCl in Et2O
Description: 5-(4-acetyl-[1,4]diazepan-1-yl)-pentanoic acid [5-(4-methoxy-phenyl)-1H-pyrazol-3-yl]-amide (1.05 g, 2.54 mmol) was dissolved in a minimum amount of DCM (5 mL) and cooled to 0° C. HCl (2.0 M in Et20, 1.4 mL, 2.89 mmol) was added and the mixture stirred at rt until precipitation of the salt was complete (about 10 min.). The solid was filtered, washed with Et2O several times, and dried in a dessicator to yield 1.09 g of the hydrochloride salt (2.42 mmol, 95% yield). […] MS (ES+): 414.26 (M+H)^+.

[2] = Hygroscopicity test / Dynamic Vapor Sorption (DVS) of hydrochloride salt crystal forms; type: physicochemical; settings: for Water absorbed eventually: 90% RH
Description: Evidence of a hydrochloride hydrate was not observed after the hygroscopicity test.
Dynamic Vapor Sorption (DVS) was done at 25-26° C.

- melting point: 185 °C
Compound: COc1ccc(-c2cc(NC(=O)CCCCN3CCCN(C(C)=O)CC3)[nH]n2)cc1 (as salt: hydrochloric acid salt) [5-(4-Acetyl-[1,4]diazepan-1-yl)-pentanoic acid [5-(4-methoxy-phenyl)-2H-pyrazol-3-yl]-amide]

- melting point: 132 to 133 °C
- Hygroscopicity of the sample [1]: extreme hygroscopicity
Compound: COc1ccc(-c2cc(NC(=O)CCCCN3CCCN(C(C)=O)CC3)n[nH]2)cc1.Cl [Compound I, 5-(4-acetyl-1,4-diazepan-1-yl)-N-(5-(4-methoxyphenyl)-1H-pyrazol-3-yl)pentanamide hydrogen chloride]

- Hygroscopicity (in words), Crystal Form Table [2]: Hygroscopic
- Water at RH 50% [2]: 7%
Compound: COc1ccc(-c2cc(NC(=O)CCCCN3CCCN(C(C)=O)CC3)[nH]n2)cc1 [Crystal Form V, 5-(4-Acetyl-[1,4]diazepan-1-yl)-pentanoic acid [5-(4-methoxy-phenyl)-2H-pyrazol-3-yl]-amide]

- Evidence of a hydrochloride hydrate after the hygroscopicity test [2]: not observed
- Hygroscopicity (in words) [2]: relatively non-hygroscopic
- Moisture gained ([2]; 70-100% RH): at least 2%
- Water absorbed eventually ([2]; DVS at 25-26° C.): up to 2%
- Relative humidity (RH) at which the form picks up moisture ([2]; DVS at 25-26° C.): about 50%
- Moisture gained when equilibrated ([2]; RH less than or equal to 70%): about 0.5%
- Hygroscopicity (in words), Crystal Form Table ([2]; listed as Crystal Form I): Non-hygroscopic
Compound: COc1ccc(-c2cc(NC(=O)CCCCN3CCCN(C(C)=O)CC3)[nH]n2)cc1 [Form I, 5-(4-acetyl-1,4-diazepan-1-yl)-N-(5-(4-methoxyphenyl)-1H-pyrazol-3-yl)pentanamide hydrochloric salt Form I]
- Behaviour of absorbed water on decreasing RH [2]: loses it without significant hysteresis on decreasing RH; also recorded: loses the water as RH decreases

- Hygroscopicity (in words) [2]: non-hygroscopic
- Water absorbed eventually ([2]; DVS at 25-26° C.): up to 7%
- Relative humidity (RH) at which the form picks up moisture ([2]; DVS at 25-26° C.): about 20%
- Water held at low RH ([2]; RH 0%, DVS at 25-26° C.): 2%
- Water at RH 50% ([2]; listed as Crystal Form II): hygroscopic (5%
- Hygroscopicity (in words), Crystal Form Table ([2]; listed as Crystal Form II): Somewhat
Compound: COc1ccc(-c2cc(NC(=O)CCCCN3CCCN(C(C)=O)CC3)[nH]n2)cc1 [Form II, 5-(4-acetyl-1,4-diazepan-1-yl)-N-(5-(4-methoxyphenyl)-1H-pyrazol-3-yl)pentanamide hydrochloric salt Form II]

- Hygroscopicity (in words), Crystal Form Table ([2]; listed as Crystal Form III): Hygroscopic
Compound: COc1ccc(-c2cc(NC(=O)CCCCN3CCCN(C(C)=O)CC3)[nH]n2)cc1 [Form III, 5-(4-Acetyl-[1,4]diazepan-1-yl)-pentanoic acid [5-(4-methoxy-phenyl)-2H-pyrazol-3-yl]-amide]
